Results: ChEMBL document CHEMBL1201862, “PubChem BioAssay data set” (2004)
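Following 48 hours of exposure in 96-well plates, responses at five concentrations were used to interpolate endpoints linearly. GI50: concentration for 50% inhibition of growth.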 Active and inactive are the calls of the source. Cut-off read from the data, not from the text of the source: active = GI50 up to about 1.1 µM and inactive = higher.

Experiments:
Experiment in all cases: DTP human tumour cell line panel, 48 h
[1] = test system: SN12C
[2] = test system: HOP-62
[3] = test system: T47D
[4] = test system: SNB-19
[5] = test system: SNB-75
[6] = test system: ACHN
[7] = test system: TK-10
[8] = test system: HCC 2998
[9] = test system: K562
[10] = test system: SK-OV-3
[11] = test system: HCT-15
[12] = test system: 786-0
[13] = test system: DU-145
[14] = test system: KM12
[15] = test system: UO-31
[16] = test system: HCT-116
[17] = test system: MOLT-4
[18] = test system: CCRF-CEM
[19] = test system: MDA-MB-231
[20] = test system: EKVX
[21] = test system: UACC-257
[22] = test system: HOP-92
[23] = test system: Hs-578T
[24] = test system: COLO 205
[25] = test system: SR
[26] = test system: OVCAR-8
[27] = test system: SF-295
[28] = test system: SF-268
[29] = test system: IGROV-1
[30] = test system: PC-3
[31] = test system: NCI-H460
[32] = test system: MDA-MB-435
[33] = test system: SK-MEL-28
[34] = test system: A549
[35] = test system: A498
[36] = test system: SK-MEL-5
[37] = test system: OVCAR-4
[38] = test system: RPMI-8226
[39] = test system: OVCAR-3
[40] = test system: LOX IMVI
[41] = test system: BT-549
[42] = test system: SW-620
[43] = test system: SK-MEL-2
[44] = test system: UACC-62
[45] = test system: HT-29
[46] = test system: CAKI-1
[47] = test system: OVCAR-5
[48] = test system: U-251
[49] = test system: RXF 393
[50] = test system: NCI-H23
[51] = test system: MDA-N

For CCC(C)(O)c1cnc(CC(C)C)c(=O)n1O (stereo unspecified), the GI50 [1] was 35.1 µM (inactive), the GI50 [2] was 42.9 µM (inactive) and the GI50 [3] was 59.4 µM (inactive). For the same molecule, the GI50 [4] was 55.8 µM (inactive), the GI50 [5] was 31.6 µM (inactive) and the GI50 [6] was 59.7 µM (inactive). For the same molecule, the GI50 [7] was 97.7 µM (inactive), the GI50 [8] was 40.7 µM (inactive) and the GI50 [9] was 18.5 µM (inactive). The GI50 [10] was 87.5 µM (inactive), the GI50 [11] was 38 µM and the GI50 [12] was 57.7 µM (inactive). For the same molecule, the GI50 [13] was > 100 µM (inactive), the GI50 [14] was 37.7 µM (inactive) and the GI50 [15] was 40.1 µM (inactive). For the same molecule, the GI50 [16] was 44.9 µM (inactive), the GI50 [17] was 21.4 µM (inactive) and the GI50 [18] was 29.2 µM (inactive). For the same molecule, the GI50 [19] was 43.3 µM (inactive), the GI50 [20] was 49.4 µM (inactive) and the GI50 [21] was 97.3 µM (inactive). The GI50 [22] was 85.9 µM (inactive), the GI50 [23] was 80.7 µM (inactive) and the GI50 [24] was 54.7 µM (inactive). The GI50 [25] was 17.2 µM (inactive), the GI50 [26] was 34 µM (inactive) and the GI50 [27] was 36.6 µM (inactive). For the same molecule, the GI50 [28] was 36.8 µM (inactive), the GI50 [29] was 63 µM (inactive) and the GI50 [30] was 48.3 µM (inactive). For the same molecule, the GI50 [31] was 28.1 µM (inactive), the GI50 [32] was 57.7 µM (inactive) and the GI50 [33] was 63.5 µM (inactive). For the same molecule, the GI50 [34] was 43.9 µM (inactive), the GI50 [35] was > 100 µM (inactive) and the GI50 [36] was 88.1 µM (inactive). The GI50 [37] was 74.3 µM (inactive), the GI50 [38] was 11.5 µM (inactive) and the GI50 [39] was 33.8 µM (inactive). For the same molecule, the GI50 [40] was 33.8 µM (inactive), the GI50 [41] was > 100 µM (inactive) and the GI50 [42] was 37.1 µM (inactive). The GI50 [43] was 57.3 µM (inactive), the GI50 [44] was 68.2 µM (inactive) and the GI50 [45] was 38.5 µM (inactive). The GI50 [46] was 43.8 µM (inactive), the GI50 [47] was 0.597 µM (active) and the GI50 [48] was 47.9 µM (inactive). The GI50 [49] was > 100 µM (inactive), the GI50 [50] was 78.2 µM (inactive) and the GI50 [51] was 73.5 µM (inactive).
